Values of other authors as cited in patent publication US20100210643A1, “sGC STIMULATORS, sGC ACTIVATORS AND COMBINATIONS FOR THE TREATMENT OF UROLOGICAL DISORDERS” (BAYER SCHERING PHARMA AKTIENGESELLSCHAFT, priority 2007, published 2010).

Key:
[1] = tested on: bladder of female Guinea Pigs; details: literature (Gillespie 2004)
[2] = tested on: pre-contracted human prostate tissue; details: in vitro; literature (Uckert 2001)

Row | SMILES | relaxation of bladder [1] | relaxation of pre-contracted human prostate tissue [2]
1 | CC(C)Cn1c(=O)n(C)c(=O)c2[nH]cnc21 [IBMX] | could relax | –
2 | CCCOc1ccccc1-c1nc2nn[nH]c2c(=O)[nH]1 [Zaprinast] | ineffective | able to relax
